Laboratory results as given in US9999616B2 (ZENITH EPIGENETICS LTD., priority 2013, dated 2018).

Columns and labels:
[1] = system: c-myc in Human AML MV4-11 cells; test: Inhibition of cMYC expression (mRNA, real-time PCR) in MV4-11 cells; type: cell-based; conditions: 3 h treatment, cMYC mRNA by real-time PCR
In short: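 MV4-11 cells in IMDM with 10% FBS were treated with increasing compound concentrations (DMSO 0.1%) for 3 h at 37 °C, in triplicate. Isolated mRNA was quantified by one-step TaqMan RT-qPCR, cMYC Ct normalized to cyclophilin, and fold expression given relative to DMSO control.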

Human AML MV-4-11 cells = test: Inhibition of cell proliferation in MV4-11 cells (CellTiter Aqueous One); type: cell-based; conditions: MV4-11, 72 h
In short: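 MV4-11 cells, 5×10^4 per well in IMDM with 10% FBS, were exposed to increasing compound concentrations or 0.1% DMSO for 72 h at 37 °C in triplicate. Viability was read by MTS (CellTiter Aqueous One) absorbance at 490 nm after 3-4 h. IC50 was derived from background-corrected signal relative to DMSO.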

hIL-6 mRNA = test: Inhibition of hIL-6 mRNA transcription in LPS-stimulated U937 macrophages; type: cell-based, Human; conditions: Homo sapiens, U-937, PMA-differentiated U937 cells, 1 h pretreatment, LPS 3 h, read-out: IL-6 activity
In short: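 PMA-differentiated U937 macrophages (60 ng/mL PMA, 3 days) pretreated 1 h with compound in 0.1% DMSO, then stimulated with 1 ug/mL E. coli LPS for 3 h at 37° C. IL-6 mRNA quantified by one-step TaqMan qRT-PCR, normalized to cyclophilin; fold expression relative to control, triplicate wells.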

hIL-17 mRNA = test: Inhibition of hIL-17 mRNA transcription in OKT3-stimulated peripheral blood mononuclear cells; type: cell-based; conditions: human PBMC, OKT3 stimulation 6 h, read-out: IL-17 Activity
Experimental: Human peripheral blood mononuclear cells were plated (2.0×10^5 cells per well) in a 96-well plate in 45 μL OpTimizer T Cell expansion media (Life Technologies) containing 20 ng/ml IL-2 and penicillin/streptomycin. The cells were treated with increasing concentrations of the test compound or DMSO (0.1%), and incubated at 37° C., 5% CO2 for 1 h before addition of 10× stock OKT3 antibody at 10 ug/ml in media. Triplicate wells were used for each concentration. Cells were incubated at 37° C., 5% CO2 for 6 h before the cells were harvested. At time of harvest, cells were pelleted by centrifugation at 800 rpm for 5 min. Cells were harvested using the mRNA Catcher PLUS kit according to manufacturer's instructions. The eluted mRNA was then used in a one-step quantitative real-time PCR reaction, using components of the RNA UltraSense™ One-Step Kit (Life Technologies) together with Applied Biosystems TaqMan® primer-probes for hIL-17 and Cyclophilin. Real-time PCR plates were run on a ViiA™7 real time PCR machine (Applied Biosystems), data was analyzed, normalizing the Ct values for hIL-17 to an internal control, prior to determining the fold induction of each unknown sample, relative to the control.

hApoA-1 mRNA = test: Up-regulation of hApoA-1 mRNA transcription in Huh7 cells; type: cell-based; conditions: Homo sapiens, Huh-7, EC170 of hApoA-1 mRNA up-regulation, 48 h, read-out: ApoA-1 activity
Experimental: Huh7 cells (2.5×10^5 per well) were plated in a 96-well plate using 100 μL DMEM per well, (Gibco DMEM supplemented with penicillin/streptomycin and 10% FBS), 72 h before the addition of the compound. The cells are treated with increasing concentrations of the compound or DMSO (0.1%), and incubated at 37° C., 5% CO2 for 48 h. Spent media was removed from the Huh-7 cells and placed on ice for immediate use with the “LDH cytotoxicity assay Kit II” from Abcam. The cells remaining in the plate were rinsed with 100 μL PBS. Cells were harvested using the mRNA Catcher PLUS kit according to manufacturer's instructions. The eluted mRNA was then used in a one-step quantitative real-time PCR reaction, using components of the RNA UltraSense™ One-Step Kit (Life Technologies) together with Applied Biosystems TaqMan® primer-probes for hApoA-1 and Cyclophilin. Real-time PCR plates were run on a ViiA™7 real time PCR machine (Applied Biosystems), data was analyzed, normalizing the Ct values for hApoA-1 to an internal control, prior to determining the fold induction of each unknown sample, relative to the control.

[2] = target: Brd4 bromodomain 1 (BRD4(1)) (Homo sapiens, UniProt O60885); test: Inhibition of tetra-acetylated histone H4 binding to Brd4 bromodomain 1, measured by FRET (HTRF); design: made in house; host or cells: E. coli BL21(DE3); conditions: 2 h at room temperature
In short: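 Inhibition was read as a drop in 665 nm relative to 620 nm HTRF signal after 2 h at room temperature, with IC50 from dose-response curves in duplicate wells. Reactions held 200 nM E. coli-expressed His-tagged bromodomain and 25-50 nM biotinylated tetra-acetylated histone H4 peptide. Buffer was 30 mM HEPES pH 7.4 with KF, CHAPS, BSA and 0.2% DMSO.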

Structure (SMILES)	IC50 [1] [nM]	IC50 (Human AML MV-4-11 cells) [nM]	IC50 (hIL-6 mRNA) [nM]	IC50 (hIL-17 mRNA) [nM]	IC50 [2] [nM]	melting point [°C]	EC170 (hApoA-1 mRNA) [µM]
Cc1noc(C)c1-c1cc(NCc2ccccc2)c2nc[nH]c2c1 [Example Compound 4]	300 to 3000	300 to 3000	300 to 3000	300 to 3000	≤ 300	–	3 to 30
Cc1noc(C)c1-c1nc(NCc2ccccc2)c2ccccc2n1 [Example Compound 5, N-benzyl-2-(3,5-dimethylisoxazol-4-yl)quinazolin-4-amine]	–	–	–	–	3000 to 30000	–	≤ 0.3
Cc1nn(C)c(C)c1CNc1cc(-c2c(C)noc2C)cc2[nH]cnc12 [Example Compound 37, 6-(3,5-dimethyl-isoxazol-4-yl)-N-((1,3,5-trimethyl-1H-pyrazol-4-yl)methyl)-1H-benzo[d] imidazol-4-amine]	300 to 3000	300 to 3000	300 to 3000	300 to 3000	≤ 300	–	≤ 0.3
Cc1noc(C)c1-c1cc(-c2cccc(C#N)c2C)c2nc[nH]c2c1 [Example Compound 57, 3-(6-(3,5-dimethyl-isoxazol-4-yl)-1H-benzo[d]imidazol-4-yl)-2-methyl-benzonitrile]	≤ 300	≤ 300	≤ 300	300 to 3000	≤ 300	–	≤ 0.3

More lines, main results first:

IC50 [1] [nM]	IC50 (Human AML MV-4-11 cells) [nM]	IC50 (hIL-6 mRNA) [nM]	IC50 (hIL-17 mRNA) [nM]	IC50 [2] [nM]	melting point [°C]	Structure (SMILES)	EC170 (hApoA-1 mRNA) [µM]
≤ 300	300 to 3000	≤ 300	300 to 3000	≤ 300	–	Cc1nc2c(-c3cn(C)nc3C)cc(-c3c(C)noc3C)cc2[nH]1 [Example Compound 60, 4-(4-(1,3-dimethyl-1H-pyrazol-4-yl)-2-methyl-1H-benzo[d]imidazol-6-yl)-3,5-dimethyl-isoxazole]	≤ 0.3
300 to 3000	300 to 3000	≤ 300	300 to 3000	≤ 300	–	Cc1nc2c(-c3c(C)cncc3C)cc(-c3c(C)noc3C)cc2[nH]1 [Example Compound 97, 4-(4-(3,5-dimethyl-pyridin-4-yl)-2-methyl-1H-benzo[d]imidazol-6-yl)-3,5-dimethyl isoxazole]	≤ 0.3
≤ 300	≤ 300	≤ 300	–	≤ 300	195 to 197	Cc1noc(C)c1-c1cc(-c2c(C)nn(C)c2C)c2nc(N3CCN(C)CC3)[nH]c2c1 [Example Compound 181, 3,5-dimethyl-4-(2-(4-methylpiperazin-1-yl)-4-(1,3,5-trimethyl-1H-pyrazol-4-yl)-1H benzo[d]imidazol-6-yl)isoxazole]	–
≤ 300	≤ 300	–	–	300 to 3000	179 to 182	Cc1noc(C)c1-c1cc(-c2cccc(C#N)c2C)c2nc(N3CCN(C)CC3)[nH]c2c1 [Example Compound 202, 3-(6-(3,5-dimethylisoxazol-4-yl)-2-(4-methylpiperazin-1-yl)-1H-benzo[d]imidazol-4-yl)-2-methylbenzonitrile]	–
